Publication PMC9637222, “Autoinducer-2 and bile salts induce c-di-GMP synthesis to repress the T3SS via a T3SS chaperone” (Nature Communications, 2022)
“And” between values parts separate entries of the source, which are not always exact repeats. Identical values can stand only once. Like-named read-outs stand apart in the source and are kept apart here.

Columns and labels:
IpgC (WP_000055835) = target: T1, IpgC (WP_000055835) (Shigella flexneri, UniProt P0A2U4); assay type: binding, S. flexneri serotype 2a; conditions: for Kd: ITC
T1 construct: His6 (N, cleaved yes); made in house; host or cells: E. coli BL21(DE3), pET-28a (pET28a-ipgC)

T3SS ATPase PA1697 = assay: ITC: c-di-GMP binding to T3SS ATPase PA1697; conditions: T3SS ATPase from P. aeruginosa
Experimental: Supplementary Fig. 25 Neither the T3SS ATPase InvC (STM2894) from S. Typhimurium nor the T3SS ATPase PA1697 from P. aeruginosa interacts with c-di-GMP
The binding affinity was evaluated by ITC analysis. ITC data and plots of injected heat for automatic injections of 100 μM c-di-GMP into the sample cell containing 10 μM InvC (a) or PA1697 (b) are shown inthe upper and lower plots, respectively. […]
the finalanalysis. Results shown are one representative of three experiments with similar results.

SicA Q34A = target: T2, SicA Q34A (Salmonella typhimurium, UniProt P69066, Q34A); assay type: binding, S. Typhimurium
T2 construct: His6 (N, cleaved yes); made in house; host or cells: E. coli BL21(DE3), pET-28a (pET28a-sicAQ34A)

InvF-His6 / SicA-HA = assay: Co-IP of InvF-His6 with SicA-HA in presence of nucleotides; conditions: nucleotide added to lysate
InvF = target: T3, InvF (Salmonella typhimurium, UniProt P69343); assay: ITC: c-di-GMP binding to InvF; set-up: His6 (N, cleaved yes); made in house; host or cells: E. coli BL21(DE3), pET-28a (pET28a-invF); species or system S. Typhimurium
T3 sequence (P69343 1-216): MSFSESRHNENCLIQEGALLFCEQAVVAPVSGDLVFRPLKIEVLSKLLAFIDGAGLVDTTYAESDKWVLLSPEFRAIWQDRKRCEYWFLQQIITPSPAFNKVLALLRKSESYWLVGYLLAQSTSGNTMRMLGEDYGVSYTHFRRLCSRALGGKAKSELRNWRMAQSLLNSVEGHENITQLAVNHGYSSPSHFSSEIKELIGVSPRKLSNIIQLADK

SicA K27A = target: T4, SicA K27A (Salmonella typhimurium, UniProt P69066, K27A); assay type: binding, S. Typhimurium
T4 construct: His6 (N, cleaved yes); made in house; host or cells: E. coli BL21(DE3), pET-28a (pET28a-sicAK27A)

BicA (WP_009896148) = target: T5, BicA (WP_009896148) (Burkholderia thailandensis, UniProt Q2T712); assay type: binding
T5 sequence (Q2T712 1-171): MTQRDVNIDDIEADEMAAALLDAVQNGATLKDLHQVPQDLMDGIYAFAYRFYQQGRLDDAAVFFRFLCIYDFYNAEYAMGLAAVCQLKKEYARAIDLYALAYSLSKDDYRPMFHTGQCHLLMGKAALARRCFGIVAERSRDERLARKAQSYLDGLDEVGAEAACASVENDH

SicA N70A = target: T6, SicA N70A (Salmonella typhimurium, UniProt P69066, N70A); assay type: binding, S. Typhimurium
T6 construct: His6 (N, cleaved yes); made in house; host or cells: E. coli BL21(DE3), pET-28a (pET28a-sicAN70A)

VcrH (WP_005464462) = target: T7, VcrH (WP_005464462) (Vibrio parahaemolyticus, UniProt Q87P60); assay type: binding; conditions: for Kd: ITC
T7 sequence (Q87P60 1-162): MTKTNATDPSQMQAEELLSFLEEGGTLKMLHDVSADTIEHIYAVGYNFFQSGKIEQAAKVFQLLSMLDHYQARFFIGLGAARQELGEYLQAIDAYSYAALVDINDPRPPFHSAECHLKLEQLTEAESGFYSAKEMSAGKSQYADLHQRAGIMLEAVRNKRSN

SipC-His6 / SicA-HA = assay: Co-IP of SipC-His6 with SicA-HA in presence of c-di-GMP; conditions: dose-dependent
SicA D67A = target: T8, SicA D67A (Salmonella typhimurium, UniProt P69066, D67A); assay type: binding, S. Typhimurium
T8 construct: His6 (N, cleaved yes); made in house; host or cells: E. coli BL21(DE3), pET-28a (pET28a-sicAD67A)

CesD (WP_000379288) = target: T9, CesD (WP_000379288) (Escherichia coli O157:H7, UniProt Q8X6H6); assay type: binding, EHEC O157:H7; conditions: for Kd: ITC
T9 sequence (Q8X6H6 1-163): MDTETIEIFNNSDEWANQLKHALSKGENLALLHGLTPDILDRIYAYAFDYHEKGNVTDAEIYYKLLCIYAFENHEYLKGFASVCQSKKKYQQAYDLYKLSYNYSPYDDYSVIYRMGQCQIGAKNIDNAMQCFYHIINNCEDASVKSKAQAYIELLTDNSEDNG

SicA D28A = target: T10, SicA D28A (Salmonella typhimurium, UniProt P69066, D28A); assay type: binding, S. Typhimurium
T10 construct: His6 (N, cleaved yes); made in house; host or cells: E. coli BL21(DE3), pET-28a (pET28a-sicAD28A)

SipB-His6 / SicA-HA = assay: Co-IP of SipB-His6 with SicA-HA in presence of c-di-GMP; conditions: dose-dependent
[1] = range given for all 6 chaperones (PcrH, IpgC, SycD, CesD, BicA, VcrH), read-out: Kd

T1 sequence (P0A2U4 whole entry): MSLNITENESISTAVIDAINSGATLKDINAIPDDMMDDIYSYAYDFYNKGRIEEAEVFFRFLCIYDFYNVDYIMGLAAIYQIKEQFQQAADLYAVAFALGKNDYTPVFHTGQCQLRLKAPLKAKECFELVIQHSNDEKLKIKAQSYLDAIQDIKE
T4 sequence (P69066 whole entry K27A): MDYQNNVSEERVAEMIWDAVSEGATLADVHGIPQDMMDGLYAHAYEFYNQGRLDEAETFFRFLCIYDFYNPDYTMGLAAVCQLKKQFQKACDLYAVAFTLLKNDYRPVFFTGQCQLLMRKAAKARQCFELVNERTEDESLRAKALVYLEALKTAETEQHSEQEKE
T2 sequence (P69066 whole entry Q34A): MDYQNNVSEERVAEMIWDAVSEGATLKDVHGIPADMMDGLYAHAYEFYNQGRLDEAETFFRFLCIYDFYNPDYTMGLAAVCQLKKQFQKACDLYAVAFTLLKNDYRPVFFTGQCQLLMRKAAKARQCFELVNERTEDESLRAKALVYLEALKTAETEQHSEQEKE
T10 sequence (P69066 whole entry D28A): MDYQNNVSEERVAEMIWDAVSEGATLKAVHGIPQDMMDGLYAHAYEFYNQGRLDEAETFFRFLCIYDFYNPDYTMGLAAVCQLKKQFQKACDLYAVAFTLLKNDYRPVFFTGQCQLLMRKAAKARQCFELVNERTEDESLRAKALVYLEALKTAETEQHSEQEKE
T6 sequence (P69066 whole entry N70A): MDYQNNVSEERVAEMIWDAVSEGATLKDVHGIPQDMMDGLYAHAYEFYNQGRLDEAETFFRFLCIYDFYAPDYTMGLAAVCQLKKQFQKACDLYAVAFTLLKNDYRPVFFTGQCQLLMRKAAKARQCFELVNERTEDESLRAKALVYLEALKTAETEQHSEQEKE
T8 sequence (P69066 whole entry D67A): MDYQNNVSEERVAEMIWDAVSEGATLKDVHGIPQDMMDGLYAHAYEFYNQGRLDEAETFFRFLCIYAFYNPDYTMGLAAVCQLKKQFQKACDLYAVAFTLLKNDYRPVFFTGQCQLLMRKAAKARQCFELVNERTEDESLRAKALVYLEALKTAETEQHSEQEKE

SMILES: Nc1nc2c(ncn2C2OC3COP(=O)(O)OC4C(COP(=O)(O)OC3C2O)OC(n2cnc3c(=O)[nH]c(N)nc32)C4O)c(=O)[nH]1 (stereo not shown) [c-di-GMP, Cyclic di-GMP]
- n, c-di-GMP binding to IpgC (IpgC (WP_000055835); ITC binding stoichiometry n, individual replicates, Supplementary Figure 22b): 1.23 and 1.10 and 1.13
- Kd (IpgC (WP_000055835); individual replicates, Supplementary Figure 22b, read-out: Kd, c-di-GMP binding to IpgC): 0.2 µM and 0.25 µM and 0.22 µM
- Kd (IpgC (WP_000055835); [1]): 0.15 to 0.22 µM
- Interaction with T3SS ATPase (in words) (T3SS ATPase PA1697): no interactions
- n, c-di-GMP binding to SicAQ34A (SicA Q34A; ITC binding stoichiometry n, individual replicates, Supplementary Figure 17c): 1.05 and 1.09
- Kd (SicA Q34A; binding to SicA Q34A): 15 µM and 12 µM and 14 µM
- Effect on co-IP of InvF-His6 with SicA-HA (in words) (InvF-His6 / SicA-HA): impaired
- Binding to InvF (in words) (InvF): does not bind
- n, c-di-GMP binding to SicAK27A (SicA K27A; ITC binding stoichiometry n, individual replicates, Supplementary Figure 17a): 1.03 and 0.93 and 0.96
- Kd (SicA K27A; binding to SicA K27A): 41 µM and 33 µM and 39 µM
- Kd (BicA (WP_009896148)): 0.15 to 0.22 µM
- n, c-di-GMP binding to BicA (BicA (WP_009896148)): 1.12 and 1.17 and 1.14
- Kd (BicA (WP_009896148); read-out: Kd, c-di-GMP binding to BicA): 0.19 µM and 0.2 µM and 0.24 µM
- n, c-di-GMP binding to SicAN70A (SicA N70A; ITC binding stoichiometry n, individual replicates, Supplementary Figure 17e): 0.95 and 1.03
- Increase in Kd, SicA N70A versus SicA (SicA N70A; ITC, peer review file): 140 fold
- Kd (SicA N70A; binding to SicA N70A): 28 µM and 31 µM and 32 µM
- n, c-di-GMP binding to VcrH (VcrH (WP_005464462); ITC binding stoichiometry n, individual replicates, Supplementary Figure 22f): 1.12 and 1.10
- Kd (VcrH (WP_005464462); individual replicates, Supplementary Figure 22f, read-out: Kd, c-di-GMP binding to VcrH): 0.14 µM and 0.16 µM
- Kd (VcrH (WP_005464462); [1]): 0.15 to 0.22 µM
- Effect on co-IP of SipC-His6 with SicA-HA (in words) (SipC-His6 / SicA-HA): decreased
- n, c-di-GMP binding to SicAD67A (SicA D67A; ITC binding stoichiometry n, individual replicates, Supplementary Figure 17d): 0.99 and 1.02 and 0.94
- Kd (SicA D67A; binding to SicA D67A): 33 µM and 34 µM and 32 µM
- n, c-di-GMP binding to CesD (CesD (WP_000379288); ITC binding stoichiometry n, individual replicates, Supplementary Figure 22d): 1.03 and 1.09 and 1.15
- Kd (CesD (WP_000379288); individual replicates, Supplementary Figure 22d, read-out: Kd, c-di-GMP binding to CesD): 0.17 µM and 0.18 µM and 0.19 µM
- Kd (CesD (WP_000379288); [1]): 0.15 to 0.22 µM
- n, c-di-GMP binding to SicAD28A (SicA D28A; ITC binding stoichiometry n, individual replicates, Supplementary Figure 17b): 1.08 and 1.02 and 0.98
- Kd (SicA D28A; binding to SicA D28A): 21 µM and 26 µM and 20 µM
- Effect on co-IP of SipB-His6 with SicA-HA (in words) (SipB-His6 / SicA-HA): decreased
